{
  "source": "patent US20050038005A1",
  "about": "“Method of intermittent administration of a pharmaceutical for the treatment of conditions associated with a female's menstrual cycle” (priority 2003, published 2005)",
  "origin": "cited, not measured here",
  "key": {"[1]": {"conditions": "magnesium supplementation, oral"}, "[2]": {"conditions": "administration of fluoxetine"}, "[3]": {"conditions": "intermittent administration for approximately fourteen days prior to the start of menses"}, "[4]": {"conditions": "calcium supplementation; especially pain and water retention"}},
  "data": [
    {"smiles": "[Mg+2]", "note": "[Magnesium]", "values": [
      {"measurement": "relief of symptoms of PMS", "setting": "[1]", "result": "relieve some symptoms of PMS, particularly pain and mood fluctuations"}
    ]},
    {"smiles": "CNCCC(Oc1ccc(C(F)(F)F)cc1)c1ccccc1", "note": "(stereo not shown) [fluoxetine]", "values": [
      {"measurement": "amelioration of symptoms of PMS/PMDD", "setting": "[2]", "result": "ameliorate the symptoms of PMS/PMDD"},
      {"measurement": "efficacy in treating the symptoms of PMS", "setting": "[3]", "result": "efficacious in treating the symptoms of PMS"}
    ]},
    {"smiles": "[Ca+2]", "note": "[Calcium]", "values": [
      {"measurement": "alleviation of symptoms associated with PMS", "setting": "[4]", "result": "effective treatment for alleviating some of the symptoms associated with PMS"}
    ]}
  ]
}
